Key:
Assay in all cases: relative viability (nuclei count vs DMSO), 5 days (fraction); higher = more cells survive
[1] = system: NCI-H1651
Method in brief: (§1)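 A single step with final 0.05% Triton X-100, 1% formaldehyde and 1 ug/ml Hoechst fixed the cells and stained nuclei 5 days after treatment. Lung cancer cell lines in 1536-well plates had been treated by pin tool the day after seeding with one drug alone or a fixed anchor-drug dose plus five library-drug doses (not always all listed) in √10 steps, and nuclei were counted on 4× images. Relative viability is the ratio of nuclei in treated wells to nuclei in vehicle wells, taken as the median of duplicate plates.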

[2] = system: NCI-H520
Method in brief: as §1

[3] = system: RERF-LC-KJ
Method in brief: as §1

[4] = system: NCI-H1703
Method in brief: as §1

[5] = system: A549
Method in brief: as §1

[6] = system: NCI-H1299
Method in brief: as §1

[7] = system: NCI-H1623
Method in brief: as §1

[8] = system: Calu-6
Method in brief: as §1

[9] = system: EBC-1
Method in brief: as §1

[10] = system: IA-LM
Method in brief: as §1

[11] = system: NCI-H522
Method in brief: as §1

C=C1C(=O)O[C@@H](CCCCCCCC)[C@@H]1C(=O)O [C-75] + COc1cc2c(Oc3ccc(NC(=O)C4(C(=O)Nc5ccc(F)cc5)CC4)cc3F)ccnc2cc1OCCCN1CCOCC1 [Foretinib] (partner 0.25 µM)
relative viability ([1]; first compound 0.08 µM): 0.83 | relative viability ([1]; first compound 0.253 µM): 0.944 | relative viability ([1]; first compound 0.8 µM): 0.725 | relative viability ([1]; first compound 2.53 µM): 0.668 | relative viability ([1]; first compound 8 µM): 0.958 | relative viability ([2]; first compound 0.08 µM): 0.728 | relative viability ([2]; first compound 0.253 µM): 0.95 | relative viability ([2]; first compound 0.8 µM): 0.831 | relative viability ([2]; first compound 2.53 µM): 0.909 | relative viability ([2]; first compound 8 µM): 0.794 | relative viability ([3]; first compound 0.08 µM): 0.94 | relative viability ([3]; first compound 0.253 µM): 0.973 | relative viability ([3]; first compound 0.8 µM): 0.909 | relative viability ([3]; first compound 2.53 µM): 0.797 | relative viability ([3]; first compound 8 µM): 0.961 | relative viability ([4]; first compound 0.08 µM): 0.399 | relative viability ([4]; first compound 0.253 µM): 0.334 | relative viability ([4]; first compound 0.8 µM): 0.325 | relative viability ([4]; first compound 2.53 µM): 0.355 | relative viability ([4]; first compound 8 µM): 0.388 | relative viability ([5]; first compound 0.08 µM): 0.946 | relative viability ([5]; first compound 0.253 µM): 0.977 | relative viability ([5]; first compound 0.8 µM): 1.01 | relative viability ([5]; first compound 8 µM): 0.869 | relative viability ([6]; first compound 0.08 µM): 1.12 | relative viability ([6]; first compound 0.253 µM): 1.03 | relative viability ([6]; first compound 0.8 µM): 1.04 | relative viability ([6]; first compound 2.53 µM): 1.04 | relative viability ([6]; first compound 8 µM): 1.11 | relative viability ([7]; first compound 0.08 µM): 0.861 | relative viability ([7]; first compound 0.253 µM): 1.09 | relative viability ([7]; first compound 0.8 µM): 0.747 | relative viability ([7]; first compound 2.53 µM): 0.686 | relative viability ([7]; first compound 8 µM): 0.993 | relative viability ([8]; first compound 0.08 µM): 0.875 | relative viability ([8]; first compound 0.253 µM): 0.914 | relative viability ([8]; first compound 0.8 µM): 0.81 | relative viability ([8]; first compound 2.53 µM): 0.634 | relative viability ([8]; first compound 8 µM): 0.907 | relative viability ([9]; first compound 0.08 µM): 0.101 | relative viability ([9]; first compound 0.253 µM): 0.11 | relative viability ([9]; first compound 0.8 µM): 0.107 | relative viability ([9]; first compound 8 µM): 0.0983 | relative viability ([10]; first compound 0.08 µM): 1.14 | relative viability ([10]; first compound 0.253 µM): 1.38 | relative viability ([10]; first compound 0.8 µM): 1.02 | relative viability ([10]; first compound 2.53 µM): 1.25 | relative viability ([10]; first compound 8 µM): 1.01

C=C1C(=O)O[C@@H](CCCCCCCC)[C@@H]1C(=O)O [C-75] + N=C(N)NC(=N)NCCc1ccccc1 [Phenformin] (partner 250 µM)
relative viability ([1]; first compound 0.08 µM): 0.35 | relative viability ([1]; first compound 0.253 µM): 0.315 | relative viability ([1]; first compound 0.8 µM): 0.354 | relative viability ([1]; first compound 2.53 µM): 0.306 | relative viability ([1]; first compound 8 µM): 0.291 | relative viability ([2]; first compound 0.08 µM): 0.539 | relative viability ([2]; first compound 0.253 µM): 0.747 | relative viability ([2]; first compound 0.8 µM): 0.464 | relative viability ([2]; first compound 2.53 µM): 0.389 | relative viability ([2]; first compound 8 µM): 0.482 | relative viability ([3]; first compound 0.08 µM): 0.427 | relative viability ([3]; first compound 0.253 µM): 0.452 | relative viability ([3]; first compound 0.8 µM): 0.398 | relative viability ([3]; first compound 2.53 µM): 0.469 | relative viability ([3]; first compound 8 µM): 0.405 | relative viability ([5]; first compound 0.08 µM): 0.185 | relative viability ([5]; first compound 0.253 µM): 0.211 | relative viability ([5]; first compound 0.8 µM): 0.186 | relative viability ([5]; first compound 2.53 µM): 0.119 | relative viability ([5]; first compound 8 µM): 0.121 | relative viability ([7]; first compound 0.08 µM): 0.613 | relative viability ([7]; first compound 0.253 µM): 0.652 | relative viability ([7]; first compound 0.8 µM): 0.584 | relative viability ([7]; first compound 2.53 µM): 0.542 | relative viability ([7]; first compound 8 µM): 0.578 | relative viability ([11]; first compound 0.08 µM): 0.61 | relative viability ([11]; first compound 0.253 µM): 0.382 | relative viability ([11]; first compound 0.8 µM): 0.614 | relative viability ([11]; first compound 8 µM): 0.582

CC1(C)CCC(c2ccc(Cl)cc2)=C(CN2CCN(c3ccc(C(=O)NS(=O)(=O)c4ccc(N[C@H](CCN5CCOCC5)CSc5ccccc5)c(S(=O)(=O)C(F)(F)F)c4)cc3)CC2)C1 [Navitoclax] + COc1cc2c(Oc3ccc(NC(=O)C4(C(=O)Nc5ccc(F)cc5)CC4)cc3F)ccnc2cc1OCCCN1CCOCC1 [Foretinib] (partner 0.25 µM)
relative viability ([1]; first compound 0.005 µM): 0.681 | relative viability ([1]; first compound 0.01581 µM): 0.979 | relative viability ([1]; first compound 0.05 µM): 0.442 | relative viability ([1]; first compound 0.1581 µM): 0.809 | relative viability ([1]; first compound 0.5 µM): 0.847 | relative viability ([2]; first compound 0.01581 µM): 0.985 | relative viability ([2]; first compound 0.05 µM): 0.892 | relative viability ([2]; first compound 0.1581 µM): 0.738 | relative viability ([2]; first compound 0.5 µM): 0.61 | relative viability ([3]; first compound 0.005 µM): 0.841 | relative viability ([3]; first compound 0.01581 µM): 0.896 | relative viability ([3]; first compound 0.05 µM): 0.844 | relative viability ([3]; first compound 0.1581 µM): 0.942 | relative viability ([3]; first compound 0.5 µM): 0.849 | relative viability ([4]; first compound 0.005 µM): 0.472 | relative viability ([4]; first compound 0.01581 µM): 0.369 | relative viability ([4]; first compound 0.05 µM): 0.416 | relative viability ([4]; first compound 0.1581 µM): 0.337 | relative viability ([4]; first compound 0.5 µM): 0.353 | relative viability ([5]; first compound 0.005 µM): 0.887 | relative viability ([5]; first compound 0.01581 µM): 1.03 | relative viability ([5]; first compound 0.05 µM): 0.994 | relative viability ([5]; first compound 0.1581 µM): 1.02 | relative viability ([5]; first compound 0.5 µM): 0.916 | relative viability ([6]; first compound 0.005 µM): 1.1 | relative viability ([6]; first compound 0.01581 µM): 1.1 | relative viability ([6]; first compound 0.05 µM): 1.12 | relative viability ([6]; first compound 0.1581 µM): 1.11 | relative viability ([6]; first compound 0.5 µM): 1.11 | relative viability ([7]; first compound 0.005 µM): 0.863 | relative viability ([7]; first compound 0.01581 µM): 0.981 | relative viability ([7]; first compound 0.05 µM): 0.781 | relative viability ([7]; first compound 0.1581 µM): 0.842 | relative viability ([7]; first compound 0.5 µM): 0.811 | relative viability ([8]; first compound 0.005 µM): 0.852 | relative viability ([8]; first compound 0.01581 µM): 0.921 | relative viability ([8]; first compound 0.05 µM): 0.937 | relative viability ([8]; first compound 0.1581 µM): 0.916 | relative viability ([8]; first compound 0.5 µM): 0.894 | relative viability ([9]; first compound 0.005 µM): 0.0939 | relative viability ([9]; first compound 0.01581 µM): 0.118 | relative viability ([9]; first compound 0.05 µM): 0.113 | relative viability ([9]; first compound 0.1581 µM): 0.103 | relative viability ([9]; first compound 0.5 µM): 0.0895 | relative viability ([10]; first compound 0.005 µM): 1.18 | relative viability ([10]; first compound 0.01581 µM): 1.2 | relative viability ([10]; first compound 0.05 µM): 1.36 | relative viability ([10]; first compound 0.1581 µM): 1.27 | relative viability ([10]; first compound 0.5 µM): 1.18

From the supplement of paper PMC10307832
